pKi: −log10 of the molar value. Converted amounts (≈) assume the structure as drawn. “And” between values parts separate entries of the source, which are not always exact repeats. Identical values can stand only once. “Also recorded” adds a separate entry of the source. Like-named read-outs stand apart in the source and are kept apart here.
Columns and labels:
[1] = test system: M. smegmatis GPM260; experiment: Intracellular alanine pools by reverse-phase HPLC; conditions: 75 μg ml^−1 DCS, 2 h
Protocol: (§2) M. smegmatis cells were grown in minimal medium until exponential phase and split into two subcultures, and DCS was added to a final concentration of 75 μg ml^−1 to one of the subcultures. After 2 h of incubation, cells were harvested at 4° C. by centrifugation, washed twice with ice-cold double-distilled water, and concentrated 50-fold. Cells were sonicated in a salt-ice-water bath with a Vibra-Cell model VC600 sonicator (Sonic and Materials, Inc., Danbury, Conn.) for 10 min at 80% power output and 50% duty cycle. The lysate was centrifuged at 4° C. for 30 min at 30,000×g to remove bacterial debris. Protein was removed from the supernatant by serial passages through YM-10 and YM-3 Centricon concentrators (Millipore Corp., Bedford, Mass.). Determination of the abundance of individual amino acids was performed at the Amino Acid Geochronology Laboratory of Northern Arizona University (Flagstaff, Ariz.) by a reverse-phase high-performance liquid chromatography (HPLC) procedure described previously (Kaufman and Manley, 1998). This procedure is able to detect nine pairs of L- and D-amino acids in the subpicomole range. […] Thus, the abundance of each amino acid was calculated as the area under the corresponding peak and expressed relative to this pool.

[2] = test system: M. smegmatis GPM260 (overproducing both Alr and Ddl); experiment: MIC by microdilution method; assay type: cell-based, Mycobacterium smegmatis; conditions: for MIC: Mycolicibacterium smegmatis, M-ADC-TW, 48 h; for MIC / susceptibility of GPM260 compared with parent strain GPM14: strain GPM260
Protocol: (§1) MICs were determined by a microdilution method described previously (Takiff et al., 1996) with minor modifications. Briefly, M. smegmatis cells were grown in M-ADC-TW to mid-exponential phase (optical density at 600 nm, 0.6 to 1.0). Approximately 10^5 CFU in 0.1 ml were inoculated in triplicate onto 96-well microplates containing serial twofold dilutions of inhibitory compounds. Plates were incubated at 37° C. and examined daily. The MIC was defined as the minimal concentration of the drug or inhibitor that prevented visible bacterial growth after 48 h. Each MIC represents the consistent result from at least three independent cultures. Amikacin, DCS, βCDA, ethambutol, and vancomycin (all from Sigma) were prepared in sterile deionized water. Rifabutin (Amersham Pharmacia) was prepared in dimethyl sulfoxide (Fisher Scientific, St. Louis, Mo.). All further dilutions of each antibiotic were prepared in growth medium. Inhibition of colony formation by DCS was evaluated as described previously in Caceres et al., (1997), which is incorporated herein by reference. Appropriate dilutions of exponentially growing M. smegmatis cells were plated onto agar containing 0 to 1,200 μg of DCS ml^−1. Colonies were counted after 5 days of incubation at 37° C. Statistical analysis was conducted using the SAS general linear model procedure (SAS Institute, Cary, N.C.).

[3] = test system: M. smegmatis GPM14 (overproducing Alr); experiment: MIC by microdilution method; assay type: cell-based, Mycobacterium smegmatis; conditions: for MIC: Mycolicibacterium smegmatis, 48 h
Protocol: as §1

[4] = test system: M. smegmatis GPM259 (overproducing Ddl); experiment: MIC by microdilution method; assay type: cell-based, Mycobacterium smegmatis; conditions: for MIC: Mycolicibacterium smegmatis, 48 h
Protocol: as §1

[5] = test system: M. smegmatis mc^2155; experiment: Intracellular alanine pools by reverse-phase HPLC; conditions: 75 μg ml^−1 DCS, 2 h
Protocol: as §2

[6] = test system: M. smegmatis GPM2; experiment: MIC by microdilution method; assay type: cell-based, Mycobacterium smegmatis; conditions: Mycolicibacterium smegmatis
[7] = test system: M. smegmatis mc^2155; experiment: MIC by microdilution method; assay type: cell-based, Mycobacterium smegmatis
[8] = test system: M. smegmatis GPM14; experiment: Intracellular alanine pools by reverse-phase HPLC; conditions: 75 μg ml^−1 DCS, 2 h
Protocol: as §2

[9] = test system: M. smegmatis GPM259; experiment: Intracellular alanine pools by reverse-phase HPLC; conditions: 75 μg ml^−1 DCS, 2 h
Protocol: as §2

[10] = target: M. smegmatis Ddl (Mycolicibacterium smegmatis, UniProt Q9ZGN0); assay type: biochemical, Mycobacterium smegmatis
[11] = test system: M. smegmatis strains; experiment: Inhibition of colony formation on agar; assay type: cell-based, Mycobacterium smegmatis; conditions: agar with 0 to 1,200 μg of DCS ml^−1, 5 days
Protocol: as §1

[12] = target: T1, M. tuberculosis Ddl (Mycobacterium tuberculosis, UniProt P9WP31); assay type: biochemical
T1 sequence (P9WP31 1-373): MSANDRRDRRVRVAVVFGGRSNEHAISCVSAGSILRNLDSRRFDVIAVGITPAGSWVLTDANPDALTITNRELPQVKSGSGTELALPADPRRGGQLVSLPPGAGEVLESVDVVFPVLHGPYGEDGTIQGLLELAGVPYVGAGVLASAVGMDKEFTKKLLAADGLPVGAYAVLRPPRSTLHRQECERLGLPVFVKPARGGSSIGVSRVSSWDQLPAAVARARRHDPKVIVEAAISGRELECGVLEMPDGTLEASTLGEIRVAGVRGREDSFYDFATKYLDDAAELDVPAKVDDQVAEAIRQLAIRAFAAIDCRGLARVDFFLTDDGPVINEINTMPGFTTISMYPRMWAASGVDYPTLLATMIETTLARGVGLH

[13] = target: Alr; conditions: Streptococcus faecalis purified Alr; cited from earlier work
[14] = target: T2, Ddl (UniProt Q47758); conditions: Streptococcus faecalis purified Ddl; cited from earlier work
T2 sequence (Q47758 1-348): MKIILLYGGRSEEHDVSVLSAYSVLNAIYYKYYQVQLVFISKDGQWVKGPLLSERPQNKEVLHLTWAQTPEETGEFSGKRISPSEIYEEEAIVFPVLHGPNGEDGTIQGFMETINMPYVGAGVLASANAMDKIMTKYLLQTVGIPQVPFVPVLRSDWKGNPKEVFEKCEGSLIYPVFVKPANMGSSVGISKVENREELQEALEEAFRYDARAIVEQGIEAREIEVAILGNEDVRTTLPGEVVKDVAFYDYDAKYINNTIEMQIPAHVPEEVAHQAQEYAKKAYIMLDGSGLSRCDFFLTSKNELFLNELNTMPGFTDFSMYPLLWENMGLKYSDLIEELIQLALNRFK

[15] = test system: M. smegmatis GPM265 (overproducing M. tuberculosis Ddl); experiment: microbe, parasite or virus in culture; assay type: cell-based, Mycobacterium smegmatis; conditions: for MIC: Mycolicibacterium smegmatis, 48 h
[16] = test system: M. smegmatis strains; experiment: Drug susceptibility compared across strains; assay type: cell-based, Mycobacterium smegmatis; conditions: mc^2155, GPM259, GPM265, GPM14

Chain of M. smegmatis Ddl (Q9ZGN0 whole entry): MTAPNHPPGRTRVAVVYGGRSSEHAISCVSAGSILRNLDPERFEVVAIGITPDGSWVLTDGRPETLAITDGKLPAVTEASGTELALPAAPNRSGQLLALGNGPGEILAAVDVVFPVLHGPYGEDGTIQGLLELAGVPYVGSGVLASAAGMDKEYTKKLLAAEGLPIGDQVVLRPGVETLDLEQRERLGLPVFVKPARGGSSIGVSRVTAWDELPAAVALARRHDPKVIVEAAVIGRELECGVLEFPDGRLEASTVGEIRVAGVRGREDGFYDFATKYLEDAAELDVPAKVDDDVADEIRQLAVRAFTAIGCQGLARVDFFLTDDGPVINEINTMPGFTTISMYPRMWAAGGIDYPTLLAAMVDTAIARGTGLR

## NC1CONC1=O (stereo not drawn) [DCS, 4-amino-3-isoxazolidinone]
[1]
  excess of L-alanine: 18- to 20 fold and ~20 fold
[2]
  MIC: 600 µg/mL (≈ 5880 µM)
[2]; strain overexpressing both the alr and ddl genes
  level of resistance: eightfold-higher
[3]
  MIC: 300 µg/mL (≈ 2940 µM)
[4]
  MIC: 150 µg/mL (≈ 1470 µM)
[4]; strain GPM259
  MIC relative to that for mc^2155: twofold greater
[5]
  excess of L- over D-alanine: eightfold
[5]; versus untreated
  increase of L-alanine-to-D-alanine molar ratio: 3.5 fold
[6]; strain GPM2, M-ADC-TW, 48 h, read-out: MIC
  MIC: 75 µg/mL (≈ 735 µM)
[7]; Mycolicibacterium smegmatis, strain mc^2155, M-ADC-TW, 48 h, read-out: MIC
  MIC: 75 µg/mL (≈ 735 µM)
[7]; strain mc^2155, M-ADC-TW, 48 h
  MIC: 75.0 µg/mL (≈ 735 µM)
[8]
  excess of L- over D-alanine: three-fold
[9]
  excess of L-alanine: 18- to 20 fold and ~20 fold
[10]
  Ddl activity inhibited: 10 to 15%
  Ddl enzyme activity inhibited: Approximately 50%
  inhibition of Ddl enzyme: inhibited by DCS in a concentration-dependent manner
[11]
  resistance of GPM259 and GPM265 on solid agar: more resistant to DCS than the wild-type mc^2155 but less resistant than the Alr-overproducing strain GPM14
[12]
  inhibition of Ddl enzyme: inhibited by DCS in a concentration-dependent manner
  percentage of inhibition higher than in mc^2155 and GPM259 extracts: approximately 10%
[13]
  pKi: 4.70
[14]
  pKi: 3.05
[15]
  MIC relative to that for mc^2155: twofold greater
  MIC: 150 µg/mL (≈ 1470 µM)

## NCC[C@H](O)C(=O)N[C@@H]1C[C@H](N)[C@@H](O[C@H]2O[C@H](CN)[C@@H](O)[C@H](O)[C@H]2O)[C@H](O)[C@H]1O[C@H]1O[C@H](CO)[C@@H](O)[C@H](N)[C@H]1O [amikacin]
[2]
  susceptibility of GPM260 compared with parent strain GPM14: identical
[16]
  susceptibilities of strains overproducing Alr and/or Ddl compared with wild type: identical

## CC[C@@H](CO)NCCN[C@@H](CC)CO [ethambutol]
[2]
  susceptibility of GPM260 compared with parent strain GPM14: identical
[16]
  susceptibilities of strains overproducing Alr and/or Ddl compared with wild type: identical

## CO[C@H]1/C=C/O[C@@]2(C)Oc3c(C)c(O)c4c(c3C2=O)C2=NC3(CCN(CC(C)C)CC3)NC2=C(NC(=O)/C(C)=C\C=C\[C@H](C)[C@H](O)[C@@H](C)[C@@H](O)[C@@H](C)[C@H](OC(C)=O)[C@@H]1C)C4=O [rifabutin]
[2]
  susceptibility of GPM260 compared with parent strain GPM14: identical
[16]
  susceptibilities of strains overproducing Alr and/or Ddl compared with wild type: identical

## CN[C@H](CC(C)C)C(=O)N[C@H]1C(=O)N[C@@H](CC(N)=O)C(=O)N[C@H]2C(=O)N[C@H]3C(=O)N[C@H](C(=O)N[C@H](C(=O)O)c4cc(O)cc(O)c4-c4cc3ccc4O)[C@H](O)c3ccc(c(Cl)c3)Oc3cc2cc(c3O[C@@H]2O[C@H](CO)[C@@H](O)[C@H](O)[C@H]2O[C@H]2C[C@](C)(N)[C@H](O)[C@H](C)O2)Oc2ccc(cc2Cl)[C@H]1O [vancomycin]
[2]
  susceptibility of GPM260 compared with parent strain GPM14: identical
[16]
  susceptibilities of strains overproducing Alr and/or Ddl compared with wild type: does not have an effect on the susceptibility; also recorded: identical

## N[C@H](CCl)C(=O)O [βCDA, β-chloro-D-alanine]
[2]
  MIC: 100 µg/mL (≈ 809 µM)
  susceptibility of GPM260 compared with parent strain GPM14: identical
[3]
  MIC: 100 µg/mL (≈ 809 µM)
[3]; strain GPM14
  MIC relative to those for strains with wild-type levels of Alr: fourfold higher
[4]; strain GPM259, M-ADC-TW, read-out: MIC
  MIC: 25 µg/mL (≈ 202 µM)
[6]; GPM2, 48 h
  MIC: 25 µg/mL (≈ 202 µM)
[7]; Mycolicibacterium smegmatis, MC^2155, 48 h
  MIC: 25 µg/mL (≈ 202 µM)
[15]
  MIC: 25 µg/mL (≈ 202 µM)

Source: US7371571B2, “Recombinant mycobacteria overexpressing D-alanine ligase gene and uses therefore” (priority 2002, dated 2008)
